According to PMC7872319, “Probing Biomolecular Interactions by a Pattern-Forming Peptide–Conjugate Sensor” (Bioconjugate Chemistry, 2020):
“Also recorded” adds a separate entry of the source. Like-named read-outs stand apart in the source and are kept apart here.

Key:
MinD ATPase [1] = molecular target: T1, MinD ATPase (Escherichia coli, UniProt P0AEZ3); conditions: read-out: IC50 of MinD ATPase activity; unconjugated ssDNA competitor added to MinD with common 10 nt + complementary 10 nt peptide conjugates; two independent assays, each three technical replicates; 95% CI (nM): 12-mer 60.3 to 81.9, 10-mer 393.6 to 772.0, 7-mer 1557.0 to 2730.0
T1 sequence (P0AEZ3 1-270): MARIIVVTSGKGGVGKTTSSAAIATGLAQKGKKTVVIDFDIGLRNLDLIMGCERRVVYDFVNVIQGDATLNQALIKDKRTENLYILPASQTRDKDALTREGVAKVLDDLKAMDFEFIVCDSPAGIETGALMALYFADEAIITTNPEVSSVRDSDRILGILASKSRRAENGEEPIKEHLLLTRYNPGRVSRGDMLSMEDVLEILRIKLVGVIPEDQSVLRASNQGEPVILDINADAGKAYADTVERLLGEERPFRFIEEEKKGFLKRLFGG

MinD [2] = test: Self-organization assay: ssDNA competition with preformed dsDNA-peptide conjugate; format: biochemical, Escherichia coli; conditions: 160 nM common 10 nt and 10 nt peptide conjugates preincubated with 1 μM MinD, competitor added in increasing amounts
Method: Supported lipid bilayers (SLBs) were formed by fusion of SUVs in a 96-well plate with a glass bottom (Greiner Bio-One, Kremsmünster, Austria). Plates were cleaned for 30 s (30% power, 0.3 mbar) in a Zepto plasma cleaner (Diener electronic GmbH, Ebhausen, Germany) using oxygen as the process gas. Lipids were prepared as described above, except that sonication was used instead of freeze–thaw cycles to form SUVs. SUVs were added to each reaction chamber at a final concentration of 0.6 mg/mL and incubated for 2 min on a 37 °C warm heating block.
All self-organization assays were performed as previously described.[12],[30] […] For fluorescence imaging, MinD was doped with 30% ATTO655-KCK-MinD.
Imaging was performed on either a commercial Zeiss LSM800 or LSM780 confocal microscope each equipped with a Zeiss C-Apochromat 40X/1.20 water-immersion objective (Carl Zeiss AG, Oberkochen, Germany). ATTO655-KCK-MinD was excited at 640 nm and imaging was performed with a pinhole diameter of 1 Airy unit.
Image analysis was performed in Fiji with the Radial Profile plugin (https://imagej.nih.gov/ij/plugins/radial-profile.html) using custom macro scripts.[31],[32] To discriminate among different patterns and to further characterize them, two approaches were applied. In the first, autocorrelation analysis was performed for each image. A soft windowing function (raised-cosine window, 1 at the center and 0.75 at the edges) was applied to reduce edge effects. Then the autocorrelation image was computed, from which a radial amplitude profile was generated. The position of the first peak in the profile was identified as the correlation distance. Patterns were further analyzed by computing the percentage variation of the correlation intensity along the ring in the autocorrelation image, here defined as correlation dispersion. […] Once separated, the pattern types were further characterized on the basis of additional parameters. Specifically, for the quasi-stationary patterns we used the spot density, derived from the reciprocal of the squared correlation distance, or the correlation distance itself. […]

MinD ATPase [3] = molecular target: T1, MinD ATPase; test: MinD ATPase assay: free biotin competing with MinE(13-31)-biotin for divalent streptavidin; format: biochemical; parameters: His (N); made in house; host or cells: E. coli BL21 (DE3)
MinD [4] = conditions: 1 μM MinD, 500 nM MinE(13-31)-biotin, 90 nM divalent streptavidin
MinD ATPase [5] = molecular target: T1, MinD ATPase; conditions: 1 μM MinD, controls: four technical replicates, unconjugated peptide or single unhybridized conjugate

10-mer: competitor ssDNA 5`-AGATGTATTT-3`, 8 overlaps (DNA, backbone not given here)
IC50 (MinD ATPase [1]): 551 nM | alteration/abolition of MinD patterns by ssDNA competitor (MinD [2]): abolition of MinD self-organization, but only at higher concentrations in comparison to the 12-mer; also recorded: altered wavelengths of the protein patterns, before eventually abolishing them completely | alteration/abolition of MinD patterns by ssDNA competitor (MinD [2]; listed as 10mer): alteration, and ultimately abolition, of protein patterns

12-mer: competitor ssDNA 5`-CTAGATGTATAA-3`, 12 overlaps (DNA, backbone not given here)
IC50 (MinD ATPase [1]): 70.3 nM | alteration/abolition of MinD patterns by ssDNA competitor (MinD [2]): alteration, and ultimately abolition, of protein patterns; also recorded: clear transformation from propagating surface waves, through quasi-stationary patterns (reverse hexagons), to the complete abolition of protein patterns

O=C(O)CCCC[C@@H]1SC[C@@H]2NC(=O)N[C@@H]21 [free biotin, biotin]
IC50 (MinD ATPase [3]): 8.7 nM | free biotin concentration for complete abolition of patterns (MinD [4]): approximately 50 nM

N-term-NTANIAKERLQIIVAERRRGSGK(N3)-C-term [MinE(13-31)]
MinD ATPase stimulation (in words) (MinD ATPase [5]): only able to slightly stimulate MinD’s ATPase activity | MinD ATPase stimulation (in words) (MinD ATPase [5]; listed as unconjugated peptide): slightly elevated
